Measured values published in patent US8202892B2, “Advanced glycation end products as active ingredients” (Henkel AG & Co. KGaA, priority 2007, dated 2012).

Columns and labels:
Assay type in all cases: cell-based
TGF-beta 1 = experiment: Relative gene expression in reconstructed dermal papillae: TGF-beta 1; details: 24 hours, untreated medium = 1.00
Protocol: (§1) Reconstructed dermal papillae as described in European patent 1 455 854 were systemically treated for 24 hours with each of the test substances listed in Table 7 in the cited concentrations. The relative gene expression profile was determined for the markers HGF and KGF (important markers of the anagen phase of the hair cycle) and TGF-beta 1, TGF-beta 2 and IGFBP3 (important markers of the catagen phase of the hair cycle). Expression for incubation with the untreated medium served as the reference; values presented in the Table illustrate the differential gene expression. A differential gene expression that is 1.66 times or greater than the absolute numerical value of the control gene expression is regarded as significant.

KGF = experiment: Relative gene expression in reconstructed dermal papillae: KGF; details: 24 hours, untreated medium = 1.00
Protocol: as §1

HGF = experiment: Relative gene expression in reconstructed dermal papillae: HGF; details: 24 hours, untreated medium = 1.00, 1.66 times or greater significant
Protocol: as §1

TGF-beta 2 = experiment: Relative gene expression in reconstructed dermal papillae: TGF-beta 2; details: 24 hours, untreated medium = 1.00
Protocol: as §1

IGFBP3 = experiment: Relative gene expression in reconstructed dermal papillae: IGFBP3; details: 24 hours, untreated medium = 1.00
Protocol: as §1

[1] = test system: Keratinocyte Growth Factor (KGF); experiment: KGF release from reconstructed hair follicle models, ELISA
Excerpt: (§2) Both the Hepatocyte Growth Factor (HGF) and Keratinocyte Growth Factor (KGF) are important regulators of the hair cycle. A change in the availability for the substances that regulate the hair cycle in comparison with the untreated controls should be assumed. The release of HGF and KGF can be quantified with the help of commercially available ELISA kits (Quantikine, RnD-Systems, Wiesbaden, Germany). For this, reconstructed hair follicle models, which are described in the European patent 1 455 854, were incubated with the test substances for 72 hours and the concentration of the growth factors in the medium was determined in the described manner. In order to be able to rule out that the described effects could have been caused by unreacted sugar (glucose or lactose), the respective individual components were tested at the highest possible concentration. The quantities of the untreated controls were set to 100% and the quantities of the treated samples were relative to these. The standard deviations were calculated from the three biological approaches.

IL-8 = experiment: Basal release of IL-8 from HaCaT keratinocytes, ELISA; details: 0.5%
Protocol: Measurement of the basal release of IL-8 provides information on the effects of substances on inflammation reactions. IL-8 is a pro-inflammatory cytokine, which plays a central role in the inflammation cascade of the skin. A reduction of the basal release of IL-8 points to potential inflammation inhibiting effects of the studied substances. In order to determine the release of the IL-8, HaCaT keratinocytes were incubated in Hanks medium with glutamax, 5% FCS and antibiotics in 24 well culture vessels. On day 2 after seeding, cells were incubated with the test substances in a concentration of 0.5%. After treatment for 15-20 h the cell culture supernatant was removed and the amount of released IL-8 was quantified by ELISA. The Quantikine IL-8 from RnD-Systems (Wiesbaden, Germany) was used for these analyses. Values illustrated in Table 5 are relative values with respect to the untreated controls from 4 independent experiments.

[2] = test system: organo-typical cell cultures (reconstructed dermal papillae); experiment: ATP production, ATPLite-M luciferase assay; details: dermal papillae cells
Protocol: ATP determinations were made using the ATPLite™-M Assays (from Packard). The test principle of this assay is based on the fact that the lucerifase from Photinus pyralis catalyzes a reaction in which, in the presence of ATP, D-luciferin is converted to oxyluciferin. Green light is emitted in this reaction and can be measured with an illuminometer. The emitted bioluminescence light is proportional to the amount of ATP present. Determination of ATP activity is carried out in organo-typical cell cultures (reconstructed dermal papillae according to EP 1 455 854). Treatment with the substance mixture is carried out for 24 hours against an untreated control. The cells were then lysed with 100 μl/cavity of a lyse buffer contained in a test kit for 5 minutes on a shaker. The cells were then incubated an additional 5 minutes with 100 μl/cavity of the supplied substrate solution on the shaker, and the reaction mixture was subsequently transferred into a black microtitre plate. Luminescence was measured after an incubation time of 10 minutes in the dark.

[3] = test system: Hepatocyte Growth Factor (HGF); experiment: HGF release from reconstructed hair follicle models, ELISA
Excerpt: as §2

fibroblasts [4] = experiment: Proliferation of fibroblasts by CyQuant; details: for Proliferation MW: untreated control = 100%
Excerpt: Determination of the proliferation of the cultivated cells provides information on the status of the cell division of the treated cells. Both cell division stimulating and cell division inhibiting substances can be defined with this analysis. An outstanding feature during the cell division is the duplication of the DNA. During the new synthesis, nucleotides are built into the newly formed DNA strand. The proliferation can be measured by offering a non-natural nucleotide derivative (bromo deoxy uridine, BrdU) to the cells for the new synthesis; the BrdU can be subsequently detected with specific antibodies. The amount of newly synthesized DNA can be quantified fluorimetrically and provides proportional information on the degree of the cell division process. Proliferation was determined by setting the untreated control to 100% and the measured values of the samples treated with the substances were in reference to that figure. For a relative proliferation of less than 80% the substance effect is said to be inhibitive, for greater than or equal to 120% the substance effect is considered to be stimulative. The CyQuant Assay Cell Proliferation Assay from Molecular Probes was used for this test according to manufacturer's directions.

fibroblasts [5] = experiment: Relative vitality (cell activity) of cultivated fibroblasts, redox dye WST-1; details: untreated control = 100%
Protocol: Vitality of the cultivated cells was determined by means of redox dyes. These dyes penetrate into the cells and are reduced by electron capture at the external mitochondrial membrane. This reduction requires a color change that is subsequently photometrically analyzed. Vitality was quantified by setting the untreated control to 100% and the measured values of the samples treated with the substances were in reference to that figure. Cell damaging means a relative vitality of less than 80%, and cell activating means greater than or equal to 120%. Cell Proliferation Reagent Wst-1 (Roche Applied Science, Mannheim, Germany) was used for this test.

[6] = test system: markers of anagen and catagen phase of the hair cycle; experiment: Relative gene expression profile of the markers of the hair cycle (statements in words); details: 0.1 wt. %
Protocol: as §1

[7] = 0.40% w/v, 72 hours, untreated = 100%
[8] = reconstructed hair follicle model

SMILES	Differential gene expression TGFβ1 (Catagen) (TGF-beta 1; 0.01% (wt. %))	Differential gene expression TGFβ1 (Catagen) (TGF-beta 1; 0.1% (wt. %))	Differential gene expression KGF (Anagen) (KGF; 0.01% (wt. %))	Differential gene expression KGF (Anagen) (KGF; 0.1% (wt. %))	Differential gene expression HGF (Anagen) (HGF; 0.01% (wt. %))	Differential gene expression HGF (Anagen) (HGF; 0.1% (wt. %))	Differential gene expression TGFβ2 (Catagen) (TGF-beta 2; 0.01% (wt. %))	Differential gene expression TGFβ2 (Catagen) (TGF-beta 2; 0.1% (wt. %))	Differential gene expression IGFBP3 (Catagen) (IGFBP3; 0.01% (wt. %))	Differential gene expression IGFBP3 (Catagen) (IGFBP3; 0.1% (wt. %))	other results
O=CC(=O)C[C@H](O)[C@H](O)CO [3-Desoxyglucosulose (18), 3-desoxyglucosulose]	1.02	−1.27	−1.33	−1.93	−2.09	−1.78	−1.67	−1.54	−1.20	−2.12	–
N[C@@H](CCCCNCC(=O)O)C(=O)O [Carboxymethyllysine (13), N-ε-carboxymethyllysine]	–	1.35	–	1.24	–	−1.77	–	−1.07	–	1.98	–
N[C@@H](CCCCNCC(=O)[C@@H](O)[C@H](O)[C@H](O)CO)C(=O)O [Fructoselysine (12), N-ε-fructosyllysine]	1.04	−1.10	−1.96	−2.49	−1.92	−1.69	−2.40	−2.40	−1.44	−1.83	–
OC[C@H]1O[C@@H](O[C@H]2[C@H](O)[C@@H](O)C(O)O[C@@H]2CO)[C@H](O)[C@@H](O)[C@H]1O (stereo partly drawn) [Lactose, D-(+)-lactose]	–	–	–	–	–	–	–	–	–	–	KGF release MW % [1, 7]: 101.2%; Effect on KGF release (in words) [1, 8]: distinct effect due to treatment with sugars (lactose and glucose) could not be established; Effect on basal release of IL-8 (in words) (IL-8): did not lead to a significant change; Effect on synthesis rate of ATP (in words) [2]: did not lead at any time and at any concentration to a change; HGF release MW % [3, 7]: 65.3%; Effect on release of HGF (in words) [3, 8]: reduced release of HGF; Effect on cell division activity of fibroblasts (in words) (fibroblasts [4]): No effect could be detected; Proliferation MW (fibroblasts [4]; 250 μg/ml): 107.2%; Proliferation MW (fibroblasts [4]; 500 μg/ml): 90.4%; Proliferation MW (fibroblasts [4]; 1000 μg/ml): 111.7%; Proliferation MW (fibroblasts [4]; 2000 μg/ml): 107.6%; Proliferation MW (fibroblasts [4]; 4000 μg/ml): 77.5%; Vitality MW (fibroblasts [5]; 250 μg/ml): 97.5%; Vitality MW (fibroblasts [5]; 500 μg/ml): 98.6%; Vitality MW (fibroblasts [5]; 1000 μg/ml): 102.0%; Vitality MW (fibroblasts [5]; 2000 μg/ml): 116.4%; Vitality MW (fibroblasts [5]; 4000 μg/ml): 119.8%
Cc1occc(=O)c1O [Maltol, 3-hydroxy-2-methyl-4H-pyran-4-one]	−1.28	–	−1.87	–	−1.23	–	−1.86	–	−1.69	–	Differential gene expression TGFβ1 (Catagen) (TGF-beta 1; 0.025% (wt. %)): −1.20; Differential gene expression KGF (Anagen) (KGF; 0.025% (wt. %)): −3.02; Differential gene expression HGF (Anagen) (HGF; 0.025% (wt. %)): 1.07; Differential gene expression TGFβ2 (Catagen) (TGF-beta 2; 0.025% (wt. %)): −3.21; Differential gene expression IGFBP3 (Catagen) (IGFBP3; 0.025% (wt. %)): −3.63
Cc1c(O)c(=O)ccn1CCCC[C@H](N)C(=O)O [Maltosine (15), maltosine]	–	3.39	–	−1.45	–	−2.09	–	−2.24	–	7.55	Gene expression of markers of catagen (in words) [6]: simultaneously increased gene expression of markers of catagen
CC1NC(NCCC[C@H](N)C(=O)O)=NC1=O (stereo partly drawn) [Ornithinoimidazolinone (16), ornithinoimidazolinone]	–	1.08	–	−1.25	–	−3.30	–	−1.66	–	−1.60	–
